Assay results reported in PubChem BioAssay (NCI).
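Dose response: 5 concentrations. Exposure: 48 h. Format: 96-well plates. Endpoint: linear interpolation; highest concentration if not reached. GI50 marks 50% less growth. At the TGI there is no net growth.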

Experiments:
Test in all cases: NCI tumour cell line growth inhibition, 48 h
HCC-2998 colon = test system: HCC-2998 colon
HL-60(TB) leukemia = test system: HL-60(TB) leukemia
K-562 leukemia = test system: K-562 leukemia
SF-268 CNS = test system: SF-268 CNS
SF-539 CNS = test system: SF-539 CNS
SK-MEL-28 melanoma = test system: SK-MEL-28 melanoma
SK-OV-3 ovarian = test system: SK-OV-3 ovarian
SR leukemia = test system: SR leukemia
SW-620 colon = test system: SW-620 colon
T-47D breast = test system: T-47D breast

Row | Compound | GI50 (HCC-2998 colon) [µM] | TGI (HCC-2998 colon) [µM] | GI50 (HL-60(TB) leukemia) [µM] | TGI (HL-60(TB) leukemia) [µM] | GI50 (K-562 leukemia) [µM] | TGI (K-562 leukemia) [µM] | GI50 (SF-268 CNS) [µM] | TGI (SF-268 CNS) [µM] | GI50 (SF-539 CNS) [µM] | TGI (SF-539 CNS) [µM] | GI50 (SK-MEL-28 melanoma) [µM] | TGI (SK-MEL-28 melanoma) [µM] | GI50 (SK-OV-3 ovarian) [µM] | TGI (SK-OV-3 ovarian) [µM] | GI50 (SR leukemia) [µM] | TGI (SR leukemia) [µM] | GI50 (SW-620 colon) [µM] | TGI (SW-620 colon) [µM] | GI50 (T-47D breast) [µM] | TGI (T-47D breast) [µM]
1 | O=C1CCC(N2Cc3cc(CNC(=O)C(F)(F)c4ccc(Cl)cc4)ccc3C2=O)C(=O)N1 (configuration not stated) | 14 | > 100 | < 0.01 | 0.03 | > 96.3 | > 100 | > 100 | > 100 | > 100 | > 100 | > 100 | > 100 | > 100 | > 100 | 54.1 | > 100 | 0.11 | > 100 | 0.442 | > 100
2 | COc1ccc(-c2[nH]c3ccccc3c2-c2ccc(OC)cc2)cc1 | 6.11 | 21.1 | 2.03 | 6.03 | 2.89 | 10.4 | 3.99 | 15.1 | 3.05 | 10.4 | 8.6 | 31.5 | 5.85 | 26.6 | – | – | 4.53 | 36.8 | 3.28 | 20.6
3 | CC(C)C[C@H](NC(=O)CNC(=O)c1cc(Cl)ccc1Cl)B1OC(=O)CC(CC(=O)O)(C(=O)O)O1 (some centres not stated) | 0.0326 | 0.105 | 0.0533 | > 100 | 0.074 | > 100 | 0.0723 | 2.43 | 0.023 | 0.0528 | 0.0345 | 0.191 | 0.261 | 29.6 | 0.0384 | > 100 | 0.0364 | – | 0.0285 | 0.0819
4 | CCc1ccc2c(c1)N(CCO)C1=C(C(=O)OC1)C2c1cccc(Br)c1 (configuration not stated) | 1.05 | 7.82 | 0.317 | 2.21 | 0.368 | 14.7 | 0.722 | 15.9 | 0.458 | 10.1 | 0.473 | 14.3 | 0.42 | 10.1 | 0.409 | 20.3 | 0.35 | 18.7 | 0.54 | 19.6
5 | COc1ccc(-c2nc(Nc3cc(C)[nH]n3)c3ccccc3n2)cc1 | 3.35 | > 77.4 | 1.58 | > 35.2 | 3.25 | > 100 | 2.42 | > 59.4 | 1.47 | 4.15 | 5.12 | > 100 | 1.39 | > 100 | 0.581 | 25.4 | 2.14 | > 100 | 1.59 | > 25.6
6 | O=C1OC(=O)C(=C\c2ccc3c(c2)OCO3)/C1=C/c1ccc2c(c1)OCO2 | – | > 100 | – | > 88.1 | – | > 100 | – | > 100 | – | > 100 | – | > 100 | – | > 100 | – | > 90.8 | – | > 100 | – | > 100
7 | CN1C(=O)N(C)C2C1NN=c1s/c(=C\c3ccc(C(F)(F)F)cc3)c(=O)n12 (configuration not stated) | 2.68 | > 100 | 0.413 | 18.6 | 0.431 | > 100 | 10.4 | > 100 | 0.983 | 6.26 | 10.2 | > 100 | 3.96 | 46.9 | 0.329 | > 100 | 0.659 | > 100 | 1.72 | > 100
8 | CCCCCCCCCCCCCCCCCC[n+]1ccc2c(C)c3c(c(C)c2c1)c1cc(O)ccc1n3CC | 2.9 | 20.6 | 2.33 | 12.4 | 1.1 | 9.13 | 1.95 | 5.11 | 2.2 | 5.59 | 1.91 | 4.98 | 1.84 | 7.6 | – | – | 1.79 | 7.1 | 2.57 | 27.3
9 | COc1ccc(-c2cc(-c3ccc(C)cc3)nc3nc(=S)[nH]c(N)c23)cc1 | 23.6 | 42.9 | – | – | 15.1 | 36.5 | 17.5 | 35.5 | 19.2 | 38.9 | 40.6 | > 100 | 40.4 | > 100 | 24.6 | 55.8 | 17.9 | 33.9 | 14.8 | 97.5
10 | NC(CSC1c2ccccc2-c2ccccc21)C(=O)O (configuration not stated) | – | – | – | > 100 | – | > 100 | – | – | – | > 100 | – | > 100 | – | > 100 | – | > 100 | – | > 100 | – | > 100
11 | Cc1cc(S(=O)(=O)/N=C(/N)Nc2ccccc2O)c(SCc2ccccc2)cc1Cl | 14.5 | 29.7 | 4.22 | > 100 | 10.2 | > 100 | 13.4 | 45.4 | 10.4 | 24.7 | 18.6 | 43.9 | – | – | 5.79 | > 100 | 22.1 | 56.4 | 12.2 | 31.4
12 | N#CC1(C(N)=O)C(c2ccc(Cl)cc2)CC(=O)CC1c1ccc(Cl)cc1 (configuration not stated) | 14.8 | 29.9 | 20.2 | 51.6 | 31.4 | > 100 | 18.5 | 34.3 | 18.4 | 34.5 | 16.6 | 30.6 | 20.3 | 45 | – | – | 17.2 | 31.1 | 17.4 | 41.8
13 | COc1cc2c(cc1C1COc3cc4occc4cc3C1=O)OCO2 (configuration not stated) | – | > 100 | – | – | – | – | – | > 100 | – | > 100 | – | > 100 | – | > 100 | – | > 100 | – | > 100 | – | > 100
14 | O=C1c2cccnc2C(=O)c2c1c(C(=O)NCCCN1CCCCC1)c1ccccn21 | 0.529 | 2.04 | – | – | 1.22 | > 100 | 1.25 | 8.3 | 1.47 | 3.07 | 3.15 | 10.5 | 2.06 | 6.7 | 0.474 | > 100 | 0.471 | 2.14 | 1.59 | 4.34
15 | O=C1c2ccccc2-c2cc([N+](=O)[O-])c([N+](=O)[O-])cc21 | – | – | – | 3.97 | – | 8.04 | – | 5.13 | – | 1.03 | – | 8.4 | – | 6.51 | – | 0.459 | – | > 21.1 | – | 2.69
